Data: US11241412B2 (priority 2015, dated 2022)
≈ marks a conversion by molar mass, not a printed value. Where “and” joins values, the source holds several entries; their conditions need not be identical. Equal values may be shown once. Read-outs that look alike come from different tables or passages of the source.

What was measured:
[1] = for adverse local or systemic effects after subcutaneous tumescent infiltration: dilute drug in TAD solution; for AUC / Cmax: Table 16B
Source text: Five pharmacokinetic studies each involved one IVAD procedure and one or two TAD procedures or a concomitant TAD+IVAD procedure. […] The AUC∞ and Cmax with TAD and with IVAD were compared.
The protocol received institutional review board approval and written informed consent was obtained prior to each research procedure. We compared tumescent antibiotic delivery (TAD) and intravenous antibiotic delivery (IVAD) with respect to concentration-time profile, AUC∞, Cmax and T>MIC.
Only after a prospective patient had requested liposuction surgery was the person offered the opportunity to participate in this research. Volunteer subjects were offered liposuction at no cost.
Exclusion criteria were: current significant health problems, history or evidence of HIV or Hepatitis C infection and […] of drugs that block cytochrome P450 3A4 or 1A2 or impair hemostasis.
Each of the 5 studies consisted of one IV antibiotic delivery (IVAD) procedure and one or two TAD infiltration procedures. In individual subjects, procedures were performed at least one week apart.
Metronidazole for IV delivery is available as 500 mg in 100 ml.
The discomfort of tumescent infiltration was minimized by a sequential infiltration technique: first using a spinal needle to infiltrate a relatively small volume of TAD sufficient to provide minimal anesthesia to allow comfortable insertion of blunt-tipped 16 gauge tumescent infiltration cannulas that provide large volume infiltration. The spinal needle and blunt-tipped infiltration cannulas were inserted through the skin via 1 mm adits made by a 1 mm skin biopsy punch. All patients were fully awake and received no parenteral sedation.
Sample Collection: After […], only serum concentrations were measured. After TAD both serum and TISF concentrations were measured. IVAD was achieved via an antecubital vein. Serum samples were obtained via an indwelling IV catheter in the contralateral antecubital vein.
A two-syringe sampling technique first removed 2 mL of blood, which was discarded, and then 10 mL of blood was obtained in a second syringe for drug assay. After each blood sample the IV catheter was flushed with 2 ml of saline and then 0.5 mL of heparin (10 units/mL).
Sequential samples of tumescent adipose tissue (10 ml to 20 ml) were obtained by the hand-held syringe liposuction technique. Sampling began at time T0 immediately after completing TAD infiltration and continued every 1 to 2 hours until the subject experienced significant discomfort as the result of diminishing local anesthesia. Samples of the subcutaneous tissue aspirate were centrifuged. The supranatant fat was discarded.
Data Analysis: We recorded the effect of varying the mg dose and mg/L concentration of antibiotics within TAD solutions between procedures in individual subjects and between different subjects.
Linear regression analysis was used to determine the correlation (coefficient of determination R2) between the antibiotic concentration (mg/L) in a TAD solution and Cmax in the infranatant liposuctioned subcutaneous tissue TISF. After TAD and after IVAD, Cmax in serum was determined by inspection of the sequential assays. AUC∞ was determined by the trapezoid rule.
At the time when each sample of TISF was obtained, patients were examined and questioned about signs and symptoms of subcutaneous tissue toxicity including unusual soreness, tenderness, discoloration, swelling at sites of subcutaneous tumescent infiltration. […] One week after TAD patients were questioned by telephone about any signs and symptoms of subcutaneous tissue toxicity at the sites of TAD.

[2] = mixed together in a saline solution for IV delivery; 8° C.; cited from earlier work
[3] = Safety of tumescent drug delivery: subcutaneous infiltration of 20 ml tumescent solutions; conditions: for ecchymosis / local tenderness upon palpation / stinging upon injection: subcutaneous TI, 20 ml, 6 of 6 subjects
Description: We studied 6 subjects over 6 days after subcutaneous infiltration of a 20 ml of tumescent solutions of acyclovir and 20 ml of tumescent gentamicin with 20 ml of subcutaneous normal saline and 20 ml of subcutaneous bacteriostatic saline as controls.

[4] = test system: platelet aggregation induced by ADP, epinephrine and collagen; conditions: cited from earlier work
human neutrophils = conditions: cited from earlier work
[5] = test system: Staphylococcus aureus (MRSA) ATCC 33592; format: cell-based
Source text: Determinations of MBC followed the method described in “Report on the Working Party on Antibiotic Sensitivity Testing of the British Society of Antimicrobial Chemotherapy: A Guide to Sensitivity Testing.”

[6] = adults; TLA without liposuction
[7] = commercial lidocaine (1%) with epinephrine (1:100,000); cited from earlier work
platelet function = test: Bleeding time and bleeding area before and after tumescent lidocaine exposure (Duke method); format: in vivo, human; conditions: post-op tumescent lidocaine exposure
Description: The skin of the left and right thigh of a subject is cleaned and allowed to dry. […] Simultaneous 4 mm deep puncture wounds are made to the same area of the left and right thighs with disposable lancets. The puncture sites are blotted with filter paper every 30 seconds, until bleeding stops and the bleeding time for each thigh is recorded. The bleeding times of the left and right thigh are compared to determine if administration of TLAnti increases bleeding time. Normal bleeding time measured by the Duke method is 1 to 3 minutes.
In a preliminary experiment, bleeding time and bleeding area were measured in a patient before and after tumescent lidocaine exposure. […] In contrast, there was a 40% increase in Average Bleeding Area (BA). Bleeding Area (BA) was a more sensitive and a more specific test for platelet function compared to Bleeding Time (BT). […] In otherwords, TAD may reduce the risk of both post-operative surgical site infection and post-operative thromboembolism.

[8] = test system: Staphylococcus aureus (MRSA) ATCC 33592; conditions: combined test product Lidocaine+Cefazolin
Description: (§1) Following inoculation, survival of test microorganisms was determined.

[9] = test system: Staphylococcus aureus (MRSA) ATCC 33592; test: microbe, parasite or virus in culture; conditions: 24 h, read-out: MIC end point
Description: as §1

[10] = Abdomen, TISF, TAD, 172 mg/L, TAD dose 600 mg
[11] = Abdomen, serum, TAD, 172 mg/L, TAD dose 600 mg

CNC[C@H](O)c1ccc(O)c(O)c1 [Epinephrine]
adverse local or systemic effects after subcutaneous tumescent infiltration [1]: no adverse local or systemic effects

Cc1ncc([N+](=O)[O-])n1CCO [Metronidazole]
chemically stable for [2]: at least 72 hours
Cmax in subcutaneous TISF after TAD+IVAD relative to serum after IVAD alone ([1]; 600 mg as TAD (400 mg) + IVAD (200 mg) vs 600 mg IVAD alone): 10 times
Cmax in TISF after TAD relative to Cmax in serum after IVAD ([1]; TAD 500 mg vs IVAD 500 mg): 24.7 times
AUC [1, 10]: 1032 µg·h/mL
Cmax [1, 10]: 160000 ng/mL
AUC [1, 11]: 81 µg·h/mL
Cmax [1, 11]: 4800 ng/mL
AUC ([1]; serum, IVAD, dose 600 mg): 127 µg·h/mL
Cmax ([1]; serum, IVAD, dose 600 mg): 14000 ng/mL
adverse local or systemic effects after subcutaneous tumescent infiltration [1]: no adverse local or systemic effects
concentration-time profiles of cefazolin and metronidazole in TISF after TAD compared ([1]; equal mg doses and equal mg/L concentrations in the TAD solution): identical
initial period in which serum concentrations were greater after IVAD than after TAD; beyond it TAD greater ([1]; serum): 10 h

Nc1nc2c(ncn2COCCO)c(=O)[nH]1 [Acyclovir]
ecchymosis [3]: no ecchymosis
local tenderness upon palpation [3]: no local tenderness upon palpation
stinging upon injection [3]: no stinging upon injection

Gentamicin
clinically significant adverse effects of subcutaneous injection in a dilute tumescent solution ([3]; conclusion): without any clinically significant adverse effects
ecchymosis [3]: no ecchymosis
local tenderness upon palpation [3]: no local tenderness upon palpation
stinging upon injection [3]: no stinging upon injection

CCCCN1CCCCC1C(=O)Nc1c(C)cccc1C (stereo not shown) [bupivacaine]
effect on platelet aggregation induced by ADP [4]: inhibit platelet aggregation induced by ADP

CCN(CC)CC(=O)Nc1c(C)cccc1C [Lidocaine]
lidocaine concentration that consistently inhibits in-vitro platelet aggregation ([4]; aggregation induced by ADP, epinephrine and collagen): ≥ 0.5 mg/mL
effect on platelet aggregation induced by ADP [4]: inhibit platelet aggregation induced by ADP
effect on platelet aggregation ([4]; safe systemic concentrations (e.g. ≤6 micrograms/ml)): no effect on platelet aggregation
reactive oxygen species (ROS) production by human neutrophils (human neutrophils; concentrations 100-fold higher than safe serum lidocaine concentrations (≤5 μg/ml)): effectively reduced reactive oxygen species (ROS) production
effect on ROS (human neutrophils; therapeutic serum lidocaine concentrations): no effect on ROS
MRSA survival (MBC test) ([5]; 1,000 mg/L, Day 1, MRSA Inoculum 4.7 × 10^5 CFU/ml): +
MRSA survival (MBC test) ([5]; 1,000 mg/L, Day 2, MRSA Inoculum 4.4 × 10^5 CFU/ml): +
MRSA survival (MBC test) ([5]; 5,000 mg/L, Day 2, MRSA Inoculum 4.4 × 10^5 CFU/ml): +
MRSA survival (MBC test) ([5]; 10,000 mg/L, Day 2, MRSA Inoculum 4.4 × 10^5 CFU/ml): 0
maximum safe dosage (estimated) [6]: 30 mg/kg
adverse local or systemic effects after subcutaneous tumescent infiltration [1]: no adverse local or systemic effects
dosage limitation approved by the FDA for infiltration local anesthesia [7]: 7 mg/kg
Average Bleeding Area (BA) (platelet function; Patient 1 (control BA = 541)): BA = 759
Average Bleeding Time (BT) (platelet function; Patient 1 (control BT = 6)): BT = 5.75
Bleeding Time BT × 2 (platelet function; Patient 1, single tests T3, T4): 10 and 13

Cc1nnc(SCC2=C(C(=O)O)N3C(=O)[C@@H](NC(=O)Cn4cnnn4)[C@H]3SC2)s1 [Cefazolin]
chemically stable for [2]: at least 72 hours
MRSA survival (MBC test) ([5]; 62.5 mg/L, Day 1, MRSA Inoculum 4.7 × 10^5 CFU/ml): +
MRSA survival (MBC test) ([5]; 62.5 mg/L, Day 2, MRSA Inoculum 4.4 × 10^5 CFU/ml): +
MRSA survival (MBC test) ([5]; 125 mg/L, Day 1, MRSA Inoculum 4.7 × 10^5 CFU/ml): +
MRSA survival (MBC test) ([5]; 125 mg/L, Day 2, MRSA Inoculum 4.4 × 10^5 CFU/ml): +
MRSA survival (MBC test) ([5]; 250 mg/L, Day 1, MRSA Inoculum 4.7 × 10^5 CFU/ml): 0
MRSA survival (MBC test) ([5]; 250 mg/L, Day 2, MRSA Inoculum 4.4 × 10^5 CFU/ml): 0
potency of Cefazolin against MRSA in the presence of Lidocaine [8]: not inhibited by the presence of Lidocaine
MIC [9]: 125 µg/mL (≈ 275 µM)

CCOC(=O)c1ccc(N)cc1 [benzocaine]
effect on platelet aggregation induced by ADP [4]: inhibit platelet aggregation induced by ADP
